Test results published in ChEMBL document CHEMBL1201862, “PubChem BioAssay data set” (2004).
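96-well plates; 48 h exposure; 5 concentrations. Endpoints by linear interpolation between flanking doses. Not reached: highest tested concentration assigned. GI50 is the concentration that inhibits growth by half.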 Calls of active or inactive are those of the source. Cut-off read from the data, not from the text of the source: active = GI50 up to about 1.1 µM and inactive = higher.

Key:
Assay in all cases: growth of human tumour cells (NCI), 48 h
UO-31 = system: UO-31
ACHN = system: ACHN
M14 = system: M14
K562 = system: K562
Malme-3M = system: Malme-3M
PC-3 = system: PC-3
Hs-578T = system: Hs-578T
OVCAR-3 = system: OVCAR-3
SF-295 = system: SF-295
NCI-H23 = system: NCI-H23
SR = system: SR
NCI/ADR-RES = system: NCI/ADR-RES
DU-145 = system: DU-145
LOX IMVI = system: LOX IMVI
HCT-116 = system: HCT-116
UACC-62 = system: UACC-62
SNB-75 = system: SNB-75
SK-MEL-28 = system: SK-MEL-28
SNB-19 = system: SNB-19
MOLT-4 = system: MOLT-4

Measured: GI50

CC(CSC(=N)N)C(N)=O (stereo unspecified)
inactive: UO-31 > 100 µM | ACHN > 100 µM | M14 > 100 µM | K562 > 100 µM | Malme-3M > 100 µM | PC-3 > 100 µM | Hs-578T > 100 µM | OVCAR-3 > 100 µM | SF-295 > 100 µM | NCI-H23 > 100 µM | SR > 100 µM | NCI/ADR-RES > 100 µM | DU-145 > 100 µM | LOX IMVI > 100 µM | HCT-116 > 100 µM | UACC-62 > 100 µM | SNB-75 > 100 µM | SK-MEL-28 > 100 µM | SNB-19 > 100 µM

CCc1ccc2oc(-c3cc(O)c(-c4nc5cc(CC)ccc5o4)cc3O)nc2c1
inactive: UO-31 > 100 µM | ACHN > 100 µM | M14 > 100 µM | K562 > 100 µM | PC-3 > 100 µM | Hs-578T > 100 µM | NCI-H23 > 100 µM | SR > 100 µM | NCI/ADR-RES > 100 µM | DU-145 > 100 µM | LOX IMVI > 100 µM | HCT-116 > 100 µM | UACC-62 > 100 µM | MOLT-4 > 100 µM | SNB-75 86.5 µM | SK-MEL-28 > 100 µM | SNB-19 > 100 µM

CC(=O)C1C(=O)C(C(C)=O)C2C3C=CC(C3)C12 (stereo unspecified)
inactive: UO-31 > 100 µM | ACHN > 100 µM | K562 > 100 µM | Malme-3M > 100 µM | PC-3 > 100 µM | Hs-578T > 100 µM | OVCAR-3 > 100 µM | SF-295 > 100 µM | NCI-H23 > 100 µM | SR > 100 µM | NCI/ADR-RES > 100 µM | DU-145 > 100 µM | LOX IMVI > 100 µM | HCT-116 > 100 µM | UACC-62 > 100 µM | MOLT-4 > 100 µM | SNB-75 > 100 µM | SK-MEL-28 > 100 µM | SNB-19 > 100 µM

COc1ccc(/C=C2\CC3C4CC=C5C[C@@H](N6CCCC6)CC[C@]5(C)C4CC[C@]3(C)[C@H]2O)cc1OC (stereo partly specified)
inactive: UO-31 9.27 µM | ACHN 8.85 µM | M14 9.44 µM | K562 8.09 µM | Malme-3M 9.2 µM | PC-3 6.3 µM | Hs-578T 11 µM | OVCAR-3 8.32 µM | SF-295 3.13 µM | NCI-H23 9.04 µM | NCI/ADR-RES 9.02 µM | DU-145 11.2 µM | LOX IMVI 8.97 µM | HCT-116 8.24 µM | UACC-62 8.97 µM | MOLT-4 8.39 µM | SNB-75 12.2 µM | SK-MEL-28 8.51 µM | SNB-19 10.4 µM

O=C(O)CSc1cc(-c2ccccc2)nc2ccccc12
inactive: UO-31 42.8 µM | ACHN 71.1 µM | M14 50.2 µM | K562 33.3 µM | Malme-3M 22.8 µM | PC-3 35.2 µM | Hs-578T 19.4 µM | OVCAR-3 21.7 µM | SF-295 45.5 µM | NCI-H23 44.7 µM | SR 27.9 µM | NCI/ADR-RES 34.2 µM | DU-145 34 µM | LOX IMVI 46 µM | HCT-116 5.41 µM | UACC-62 48.3 µM | MOLT-4 46.3 µM | SK-MEL-28 85.1 µM | SNB-19 > 100 µM

CC(C)(C)C1=C(Br)C(F)(C(C)(C)C)OP1(=O)c1ccccc1 (stereo unspecified)
inactive: UO-31 45.7 µM | ACHN 16.5 µM | M14 14.8 µM | K562 10 µM | Malme-3M 17.9 µM | PC-3 18 µM | Hs-578T 29.6 µM | OVCAR-3 15.5 µM | SF-295 21.6 µM | NCI-H23 19.5 µM | SR 11.9 µM | NCI/ADR-RES 16.4 µM | DU-145 18 µM | LOX IMVI 19.3 µM | HCT-116 16.7 µM | UACC-62 15.3 µM | SNB-75 17 µM | SK-MEL-28 19.2 µM | SNB-19 16.4 µM

O=C(O)c1cnc(-n2[nH]c3c(c2=O)CCCC3)[nH]c1=O
inactive: UO-31 > 100 µM | ACHN > 100 µM | M14 > 100 µM | K562 > 100 µM | Malme-3M > 100 µM | PC-3 > 100 µM | Hs-578T > 100 µM | SF-295 > 100 µM | NCI-H23 > 100 µM | SR > 100 µM | NCI/ADR-RES > 100 µM | DU-145 > 100 µM | HCT-116 > 100 µM | UACC-62 > 100 µM | MOLT-4 > 100 µM | SK-MEL-28 > 100 µM | SNB-19 > 100 µM

CCOC(=O)C(NC(=O)c1cccc(Cl)c1)(Nc1cccc(C)c1)C(F)(F)F (stereo unspecified)
inactive: UO-31 15.1 µM | ACHN 15.9 µM | K562 23.6 µM | Malme-3M 16.6 µM | PC-3 16.5 µM | Hs-578T 14.8 µM | SR 28.7 µM | NCI/ADR-RES 15.9 µM | DU-145 29.3 µM | LOX IMVI 15.3 µM | HCT-116 19.1 µM | UACC-62 14.5 µM | MOLT-4 20.4 µM | SNB-75 12.4 µM | SK-MEL-28 17.4 µM | SNB-19 35.9 µM

c1ccc(-c2cc(-c3ccccc3)nc(-c3ccncc3)c2)cc1
inactive: UO-31 > 100 µM | ACHN 70.8 µM | M14 42.4 µM | K562 > 100 µM | Malme-3M > 100 µM | PC-3 > 100 µM | Hs-578T > 100 µM | OVCAR-3 > 100 µM | SF-295 57.1 µM | NCI-H23 91.4 µM | SR > 100 µM | NCI/ADR-RES > 100 µM | DU-145 > 100 µM | LOX IMVI > 100 µM | HCT-116 48.8 µM | UACC-62 > 100 µM | MOLT-4 > 100 µM | SK-MEL-28 > 100 µM | SNB-19 53.8 µM

C1=C2C3=[N+](CCCC3)CC2Cc2ccsc21 (stereo unspecified)
inactive: UO-31 > 100 µM | ACHN > 100 µM | M14 71.3 µM | K562 > 100 µM | Malme-3M 63 µM | PC-3 45.1 µM | Hs-578T > 100 µM | OVCAR-3 84.1 µM | SF-295 55.3 µM | NCI-H23 > 100 µM | NCI/ADR-RES > 100 µM | DU-145 > 100 µM | LOX IMVI > 100 µM | HCT-116 > 100 µM | UACC-62 > 100 µM | MOLT-4 > 100 µM | SNB-75 93.8 µM | SK-MEL-28 > 100 µM | SNB-19 56.2 µM

CN(C)c1ccc(/C=C/c2nc3ccccc3s2)cc1
inactive: UO-31 8.53 µM | ACHN > 100 µM | M14 > 100 µM | K562 > 100 µM | Malme-3M > 100 µM | PC-3 > 100 µM | Hs-578T > 100 µM | SF-295 > 100 µM | NCI-H23 > 100 µM | SR > 100 µM | NCI/ADR-RES > 100 µM | DU-145 > 100 µM | LOX IMVI > 100 µM | HCT-116 > 100 µM | MOLT-4 > 100 µM | SK-MEL-28 > 100 µM | SNB-19 > 100 µM

COc1cc(C(c2c(O)c3ccccc3oc2=O)c2c(O)c3ccccc3oc2=O)ccc1O
inactive: UO-31 25.1 µM | ACHN 22.6 µM | M14 18.1 µM | K562 39.4 µM | Malme-3M 19 µM | PC-3 33.7 µM | Hs-578T 40.4 µM | OVCAR-3 19.5 µM | SF-295 35.1 µM | NCI-H23 39 µM | NCI/ADR-RES 28.6 µM | DU-145 21.6 µM | LOX IMVI 24.6 µM | HCT-116 34 µM | UACC-62 18.5 µM | MOLT-4 21.1 µM | SNB-75 20.7 µM | SK-MEL-28 16.7 µM | SNB-19 26.8 µM

Cc1ccccc1-n1c(=O)nc2n(-c3ccc(C(C)(C)C)cc3)c3ccccc3cc-2c1=O
inactive: UO-31 26.4 µM | ACHN 32.5 µM | M14 17.7 µM | K562 37.8 µM | PC-3 19.8 µM | Hs-578T 24.7 µM | OVCAR-3 18.4 µM | SF-295 20.4 µM | NCI-H23 21.7 µM | SR 30.1 µM | NCI/ADR-RES 16.7 µM | DU-145 21.1 µM | LOX IMVI 15.6 µM | HCT-116 15.5 µM | UACC-62 19.2 µM | MOLT-4 23.8 µM | SNB-75 22.3 µM | SK-MEL-28 15.3 µM | SNB-19 21.5 µM

COc1cc2ccc1OCc1cccc(n1)COc1ccc(cc1OC)/C=N\c1ccc(cc1)-c1ccc(cc1)/N=C\2
inactive: UO-31 > 100 µM | ACHN > 100 µM | M14 > 100 µM | K562 > 100 µM | Malme-3M > 100 µM | PC-3 > 100 µM | Hs-578T > 100 µM | OVCAR-3 > 100 µM | SF-295 > 100 µM | NCI-H23 > 100 µM | SR > 100 µM | NCI/ADR-RES > 100 µM | DU-145 > 100 µM | LOX IMVI > 100 µM | HCT-116 > 100 µM | UACC-62 > 100 µM | MOLT-4 > 100 µM | SNB-75 > 100 µM | SNB-19 > 100 µM

Cc1c(C#N)c(=N)oc2ccccc12
inactive: UO-31 > 100 µM | ACHN > 100 µM | M14 > 100 µM | K562 > 100 µM | Malme-3M > 100 µM | PC-3 > 100 µM | Hs-578T > 100 µM | OVCAR-3 > 100 µM | SF-295 > 100 µM | NCI-H23 > 100 µM | NCI/ADR-RES > 100 µM | DU-145 > 100 µM | LOX IMVI > 100 µM | HCT-116 > 100 µM | UACC-62 > 100 µM | MOLT-4 > 100 µM | SNB-75 57.5 µM | SK-MEL-28 > 100 µM | SNB-19 > 100 µM
